# Experiments:
# [1] = test system: super sensitive Gram-negative Escherichia coli (E. coli) BAS849; assay: Antibacterial activity, microbroth dilution MIC, E. coli BAS849; format: cell-based; settings: E. coli BAS849, microbroth dilution; for MIC: Escherichia coli, read-out: MIC, BAS849
# [2] = test system: control Gram-negative E. coli 25922 strain; assay: Antibacterial activity, microbroth dilution MIC, E. coli 25922; format: cell-based, Escherichia coli; settings: E. coli 25922, microbroth dilution; for MIC: Escherichia coli, read-out: MIC, 25922
# [3] = test system: Gram-positive Staphylococcus aureus (S. aureus) 29213; assay: Antibacterial activity, microbroth dilution MIC, S. aureus 29213; format: cell-based; settings: S. aureus 29213, microbroth dilution; for MIC: Staphylococcus aureus, read-out: MIC, 29213
# [4] = test system: quinolone resistant E. coli LZ3111; assay: Antibacterial activity, MIC, quinolone resistant E. coli LZ3111; format: cell-based, Escherichia coli; settings: for MIC: Escherichia coli, read-out: MIC, LZ3111
# From the text: (§1) The antibacterial activity from a microbroth dilution method may be presented as the minimum inhibitory concentration (MIC in […]). The MIC value is the lowest concentration of a drug which prevents macroscopically visible bacterial growth under test conditions.
# Mutations in these regions are known to confer a high level resistance to the quinolone class of antibiotics.
# [5] = test system: E. coli ELZ4000 (MDR clinical isolate); assay: Antibacterial activity, MIC, MDR E. coli ELZ4000; format: cell-based, Escherichia coli; settings: E. coli ELZ4000, MDR clinical isolate; for MIC: Escherichia coli, read-out: MIC ELZ4000
# [6] = test system: E. coli ELZ4251 (MDR clinical isolate); assay: Antibacterial activity, MIC, MDR E. coli ELZ4251; format: cell-based, Escherichia coli; settings: E. coli ELZ4251, MDR clinical isolate; for MIC: Escherichia coli, read-out: MIC ELZ4251
# [7] = test system: Acinetobacter baumannii (A. baumannii) BAA747; assay: Antibacterial activity, MIC, A. baumannii BAA747; format: cell-based; settings: A. baumannii BAA747; for MIC: Acinetobacter baumannii, read-out: MIC BAA747
# [8] = test system: Klebsiella pneumoniae (K. pneumoniae) 35657; assay: Antibacterial activity, MIC, K. pneumoniae 35657; format: cell-based; settings: for MIC: Klebsiella pneumoniae
# [9] = test system: resistant A. baumannii MXX2240 (MDR clinical isolate); assay: Antibacterial activity, MIC, resistant A. baumannii MXX2240; format: cell-based, Acinetobacter baumannii; settings: resistant A. baumannii MMX2240, MDR clinical isolate; for MIC: Acinetobacter baumannii, read-out: MIC MMX2240
# [10] = test system: resistant K. pneumoniae MXX1232 (MDR clinical isolate); assay: Antibacterial activity, MIC, resistant K. pneumoniae MXX1232; format: cell-based, Klebsiella pneumoniae; settings: resistant K. pneumoniae MMX1232, MDR clinical isolate; for MIC: Klebsiella pneumoniae, read-out: MIC MMX1232
# [11] = test system: Pseudomonas aeruginosa (P. aeruginosa) 27853; assay: Antibacterial activity, MIC, P. aeruginosa 27853; format: cell-based; settings: P. aeruginosa 27853; for MIC: Pseudomonas aeruginosa, read-out: MIC 27853
# From the text: as §1
# Antibacterial activity of test compounds against the Gram-negative bacterium Pseudomonas aeruginosa (P. aeruginosa) 27853 is shown in Table 5.
# [12] = test system: Haemophilus influenzae (H. influenzae) 49247; assay: Antibacterial activity, MIC, H. influenzae 49247; format: cell-based; settings: H. influenzae 49247; for MIC: Haemophilus influenzae, read-out: MIC 49247
# Procedure, shortened: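 A microbroth dilution method gave the minimum inhibitory concentration for each compound against H. influenzae 49247, a Gram-negative bacterium. MIC means the smallest concentration of drug at which no macroscopically visible bacterial growth appears under the conditions of the test.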
# [13] = test system: Moraxella catarrhalis (M. catarrhalis) 25238; assay: Antibacterial activity, MIC, M. catarrhalis 25238; format: cell-based; settings: M. catarrhalis 25238; for MIC: Moraxella catarrhalis, read-out: MIC 25238
# [14] = test system: Neisseria meningitidis (N. meningitidis) 13090; assay: Antibacterial activity, MIC, N. meningitidis 13090; format: cell-based; settings: N. meningitidis 13090; for MIC: Neisseria meningitidis, read-out: MIC 13090
SMILES,MIC [1] [µg/mL],MIC [2] [µg/mL],MIC [3] [µg/mL],MIC [5] [µg/mL],MIC [6] [µg/mL],MIC [7] [µg/mL],MIC [8] [µg/mL],MIC [9] [µg/mL],MIC [10] [µg/mL],MIC [11] [µg/mL],MIC [12] [µg/mL],MIC [13] [µg/mL],MIC [14] [µg/mL],MIC [4] [µg/mL],further results
"Cc1c(-c2ccc(N3C[C@@H]4[C@@H](N)[C@@H]4C3)cc2)[nH]c(=O)c(C(=O)O)c1O.Cl [Cpd 259, 6-{4-[(1R,5S,6s)-6-amino-3-azabicyclo[3.1.0]hex-3-yl]phenyl}-4-hydroxy-5-methyl-2-oxo-1,2-dihydropyridine-3-carboxylic acid hydrochloride]",,,,,,,,,,,,,,,"MIC, BAS849 [1]: **** (an MIC value of ≦1.0 μg/mL is indicated by four stars (****)); MIC, 25922 [2]: *** (an MIC value between >1.0 μg/mL and ≦3.5 μg/mL is indicated by three stars (***)); MIC, 29213 [3]: * (an MIC value between >12.5 μg/mL and ≦150 μg/mL is indicated by a single star (*)); MIC, LZ3111 ([4]; quinolone resistant E. coli LZ3111): *** (an MIC value between >1.0 μg/mL and ≦3.5 μg/mL is indicated by three stars (***)); MIC ELZ4000 [5]: ** (an MIC value between >3.5 μg/mL and ≦12.5 μg/mL is indicated by two stars (**)); MIC ELZ4251 [6]: ** (an MIC value between >3.5 μg/mL and ≦12.5 μg/mL is indicated by two stars (**)); MIC BAA747 [7]: ** (an MIC value between >3.5 μg/mL and ≦12.5 μg/mL is indicated by two stars (**)); MIC 35657 [8]: *** (an MIC value between >1.0 μg/mL and ≦3.5 μg/mL is indicated by three stars (***)); MIC MMX2240 [9]: * (an MIC value between >12.5 μg/mL and ≦150 μg/mL is indicated by a single star (*)); MIC MMX1232 [10]: * (an MIC value between >12.5 μg/mL and ≦150 μg/mL is indicated by a single star (*)); MIC 27853 [11]: * (an MIC value between >12.5 μg/mL and ≦150 μg/mL is indicated by a single star (*)); MIC 49247 [12]: *** (an MIC value between >1.0 μg/mL and ≦3.5 μg/mL is indicated by three stars (***)); MIC 25238 [13]: ** (an MIC value between >3.5 μg/mL and ≦12.5 μg/mL is indicated by two stars (**)); MIC 13090 [14]: **** (an MIC value of ≦1.0 μg/mL is indicated by four stars (****))"
"CCc1c(-c2ccc(N3C[C@H]4CCN[C@H]4C3)cc2)[nH]c(=O)c(C(=O)O)c1O.Cl [Cpd 246, 5-ethyl-6-{4-[(3aR,6aR)-hexahydropyrrolo[3,4-b]pyrrol-5(1H)-yl]phenyl}-4-hydroxy-2-oxo-1,2-dihydropyridine-3-carboxylic acid hydrochloride]",< 1,1 to 3.5,12.5 to 150,12.5 to 150,3.5 to 12.5,12.5 to 150,1 to 3.5,12.5 to 150,12.5 to 150,12.5 to 150,1 to 3.5,3.5 to 12.5,1 to 3.5,,
"CCc1c(-c2ccc(N3C[C@H]4CCC[C@H](NC)[C@H]4C3)cc2)[nH]c(=O)c(C(=O)O)c1O.Cl [Cpd 268, 5-ethyl-4-hydroxy-6-{4-[(3aR,4S,7aS)-4-(methylamino)octahydro-2H-isoindol-2-yl]phenyl}-2-oxo-1,2-dihydropyridine-3-carboxylic acid hydrochloride]",1 to 3.5,3.5 to 12.5,3.5 to 12.5,12.5 to 150,3.5 to 12.5,12.5 to 150,12.5 to 150,12.5 to 150,12.5 to 150,12.5 to 150,12.5 to 150,3.5 to 12.5,3.5 to 12.5,1 to 3.5,
"CCc1cc(C(=O)O)c(=O)[nH]c1-c1ccc(N2C[C@@H]3[C@@H](N)[C@@H]3C2)cc1 [Cpd 177, 6-{4-[(1R,5S,6s)-6-amino-3-azabicyclo[3.1.0]hex-3-yl]phenyl}-5-ethyl-2-oxo-1,2-dihydropyridine-3-carboxylic acid]",< 1,< 1,12.5 to 150,12.5 to 150,12.5 to 150,1 to 3.5,< 1,12.5 to 150,12.5 to 150,1 to 3.5,,< 1,< 1,12.5 to 150,
"CCc1c(-c2ccc(N(C)C)cc2)[nH]c(=O)c(C(=O)O)c1O [Cpd 90, 6-[4-(dimethylamino)phenyl]-5-ethyl-4-hydroxy-2-oxo-1,2-dihydropyridine-3-carboxylic acid]",< 1,1 to 3.5,3.5 to 12.5,12.5 to 150,12.5 to 150,1 to 3.5,3.5 to 12.5,3.5 to 12.5,12.5 to 150,12.5 to 150,,< 1,< 1,12.5 to 150,

# — patent US9650395B2, “Antibacterial compounds and methods for use” (PTC Therapeutics, Inc., priority 2011, dated 2017)
